ChEMBL document CHEMBL5465560, “Selectivity Literature for EUbOPEN Chemogenomic Library” (2024)

How the values were obtained:
[1] = biological target: T1, MAP/microtubule affinity-regulating kinase 4 (Homo sapiens) (UniProt Q96L34); experiment: Selectivity interaction (Kinase panel (KiNativ target engagement assay in Jurkat cells)) EUB0001635a MARK4; type: cell-based; conditions: Selectivity number of off-targets 0.0, Selectivity number of targets 233.0, Source Knowledge https://www.sciencedirect.com/science/article/pii/S2451945619300674?via%3Dihub, at 1 µM
T1 sequence (whole entry): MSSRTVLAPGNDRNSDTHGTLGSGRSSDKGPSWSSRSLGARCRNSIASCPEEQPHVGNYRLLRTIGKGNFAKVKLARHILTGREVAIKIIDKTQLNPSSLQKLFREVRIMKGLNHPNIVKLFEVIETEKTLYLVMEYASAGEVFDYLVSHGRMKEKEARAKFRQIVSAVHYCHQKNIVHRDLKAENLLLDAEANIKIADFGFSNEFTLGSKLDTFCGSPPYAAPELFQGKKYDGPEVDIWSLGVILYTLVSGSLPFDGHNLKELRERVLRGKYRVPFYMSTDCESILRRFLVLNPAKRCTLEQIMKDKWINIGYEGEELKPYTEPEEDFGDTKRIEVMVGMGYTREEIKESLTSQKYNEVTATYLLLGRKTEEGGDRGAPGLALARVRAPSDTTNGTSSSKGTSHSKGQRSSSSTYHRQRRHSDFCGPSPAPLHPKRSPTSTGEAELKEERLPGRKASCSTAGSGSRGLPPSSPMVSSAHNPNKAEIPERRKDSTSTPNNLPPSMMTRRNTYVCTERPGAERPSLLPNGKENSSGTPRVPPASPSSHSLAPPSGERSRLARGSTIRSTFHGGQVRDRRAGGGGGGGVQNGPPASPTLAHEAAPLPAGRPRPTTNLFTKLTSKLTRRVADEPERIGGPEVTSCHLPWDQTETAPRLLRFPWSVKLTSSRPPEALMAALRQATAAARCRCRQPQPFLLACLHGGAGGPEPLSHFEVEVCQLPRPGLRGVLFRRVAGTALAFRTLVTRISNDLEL

[2] = biological target: Phosphatidylinositol 3-kinase catalytic subunit type 3 (Homo sapiens, UniProt Q8NEB9); experiment: Selectivity interaction (ActivX KiNativ screen (kinase selectivity in THP-1 cell lysates)) EUB0000639a PIK3C3; type: subcellular; conditions: lysate, at 5 µM
[3] = biological target: Serine/threonine-protein kinase 26 (Homo sapiens, UniProt Q9P289); experiment: Selectivity interaction (KinomeScan (DiscoverX)) EUB0000607a STK26; conditions: at 10 µM
[4] = biological target: T2, Cyclin-dependent kinase-like 5 (Homo sapiens) (UniProt O76039); experiment: Selectivity interaction (KinomeScan (DiscoverX)) EUB0000607a CDKL5; conditions: at 10 µM
T2 sequence (whole entry): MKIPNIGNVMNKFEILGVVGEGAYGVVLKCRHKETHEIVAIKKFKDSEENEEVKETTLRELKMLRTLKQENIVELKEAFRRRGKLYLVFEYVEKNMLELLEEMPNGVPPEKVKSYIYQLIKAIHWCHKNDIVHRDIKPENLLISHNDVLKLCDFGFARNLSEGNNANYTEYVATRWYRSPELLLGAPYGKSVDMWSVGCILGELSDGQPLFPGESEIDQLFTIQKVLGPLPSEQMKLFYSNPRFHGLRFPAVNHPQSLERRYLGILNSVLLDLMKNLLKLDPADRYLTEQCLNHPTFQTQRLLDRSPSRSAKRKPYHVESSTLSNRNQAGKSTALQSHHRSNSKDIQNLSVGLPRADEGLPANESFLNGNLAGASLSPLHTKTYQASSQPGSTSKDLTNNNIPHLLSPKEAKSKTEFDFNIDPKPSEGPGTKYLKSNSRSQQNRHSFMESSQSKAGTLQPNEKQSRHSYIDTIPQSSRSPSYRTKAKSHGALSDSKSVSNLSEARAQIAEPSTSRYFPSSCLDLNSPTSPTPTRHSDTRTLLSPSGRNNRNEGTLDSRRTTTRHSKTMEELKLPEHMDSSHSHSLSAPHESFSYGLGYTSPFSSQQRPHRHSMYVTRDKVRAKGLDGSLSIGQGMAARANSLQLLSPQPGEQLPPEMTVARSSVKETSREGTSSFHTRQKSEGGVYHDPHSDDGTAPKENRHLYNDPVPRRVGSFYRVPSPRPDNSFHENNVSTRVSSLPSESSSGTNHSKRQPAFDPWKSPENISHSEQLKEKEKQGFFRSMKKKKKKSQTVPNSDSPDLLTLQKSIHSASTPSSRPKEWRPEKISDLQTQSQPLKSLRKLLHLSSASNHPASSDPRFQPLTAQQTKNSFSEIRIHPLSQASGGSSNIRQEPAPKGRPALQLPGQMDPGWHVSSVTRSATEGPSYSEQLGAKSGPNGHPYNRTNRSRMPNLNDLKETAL

[5] = biological target: B2 bradykinin receptor (Homo sapiens) (UniProt P30411); experiment: Selectivity interaction (Eurofins CEREP Diversity Profile (receptors and ion channels)) EUB0000279b BDKRB2; conditions: at 10 µM
B2 bradykinin receptor (Homo sapiens), sequence (P30411 whole entry): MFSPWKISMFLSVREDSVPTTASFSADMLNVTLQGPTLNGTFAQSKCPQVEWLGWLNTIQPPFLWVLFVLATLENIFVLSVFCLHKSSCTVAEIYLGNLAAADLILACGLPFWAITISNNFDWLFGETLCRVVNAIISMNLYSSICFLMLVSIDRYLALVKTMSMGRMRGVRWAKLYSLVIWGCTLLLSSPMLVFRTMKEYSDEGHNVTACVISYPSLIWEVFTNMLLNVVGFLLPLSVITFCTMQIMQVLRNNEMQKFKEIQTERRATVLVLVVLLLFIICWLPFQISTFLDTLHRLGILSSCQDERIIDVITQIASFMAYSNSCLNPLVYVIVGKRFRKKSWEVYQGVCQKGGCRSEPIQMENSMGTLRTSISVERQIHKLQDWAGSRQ

Serine/threonine-protein kinase 26, sequence (Q9P289 2-416 limits assumed): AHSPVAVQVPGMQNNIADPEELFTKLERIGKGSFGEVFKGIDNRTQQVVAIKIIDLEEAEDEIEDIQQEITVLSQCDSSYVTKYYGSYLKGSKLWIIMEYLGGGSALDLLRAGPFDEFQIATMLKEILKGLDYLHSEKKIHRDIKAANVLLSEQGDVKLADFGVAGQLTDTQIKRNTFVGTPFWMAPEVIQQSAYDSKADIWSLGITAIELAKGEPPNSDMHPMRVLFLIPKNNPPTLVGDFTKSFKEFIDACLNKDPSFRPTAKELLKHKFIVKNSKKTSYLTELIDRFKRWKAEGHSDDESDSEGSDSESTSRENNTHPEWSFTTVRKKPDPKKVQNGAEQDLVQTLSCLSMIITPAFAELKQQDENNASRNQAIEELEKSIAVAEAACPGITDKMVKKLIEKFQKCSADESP
Phosphatidylinositol 3-kinase catalytic subunit type 3, sequence (Q8NEB9 whole entry): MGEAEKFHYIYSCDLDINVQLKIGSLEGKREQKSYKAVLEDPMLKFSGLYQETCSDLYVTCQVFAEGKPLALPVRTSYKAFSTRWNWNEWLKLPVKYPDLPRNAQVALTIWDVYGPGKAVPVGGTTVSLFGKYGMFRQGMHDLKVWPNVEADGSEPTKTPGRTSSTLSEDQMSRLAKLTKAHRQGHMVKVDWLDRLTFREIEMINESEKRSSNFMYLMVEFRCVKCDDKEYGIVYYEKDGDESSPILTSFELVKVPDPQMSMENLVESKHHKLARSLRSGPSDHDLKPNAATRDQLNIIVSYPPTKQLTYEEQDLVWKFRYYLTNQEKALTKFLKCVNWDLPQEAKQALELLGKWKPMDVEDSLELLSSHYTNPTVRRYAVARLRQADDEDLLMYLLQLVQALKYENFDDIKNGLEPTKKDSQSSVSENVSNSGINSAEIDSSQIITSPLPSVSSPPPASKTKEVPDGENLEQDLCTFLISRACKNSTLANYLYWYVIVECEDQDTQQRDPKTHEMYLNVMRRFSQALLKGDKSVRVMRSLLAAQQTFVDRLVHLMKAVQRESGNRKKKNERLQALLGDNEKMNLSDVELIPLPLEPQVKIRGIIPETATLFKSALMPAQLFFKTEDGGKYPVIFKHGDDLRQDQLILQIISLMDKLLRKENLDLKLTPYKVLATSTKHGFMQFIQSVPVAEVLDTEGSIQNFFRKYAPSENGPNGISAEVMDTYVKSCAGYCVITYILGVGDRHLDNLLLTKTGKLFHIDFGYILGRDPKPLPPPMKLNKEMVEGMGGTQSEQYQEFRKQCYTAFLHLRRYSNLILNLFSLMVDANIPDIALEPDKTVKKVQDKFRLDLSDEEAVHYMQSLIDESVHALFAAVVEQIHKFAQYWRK

Q: How did the % of engagement [1] turn out when `C=CC(=O)Nc1ccc(C(=O)Nc2[nH]nc3c2CN(C(=O)N[C@H](CN(C)C)c2ccccc2)C3(C)C)cc1` was run?
A: Its % of engagement is 37%.

Q: How did the % of inhibition [2] turn out when `CC[C@@H]1[C@H](F)C(=O)N[C@@H]1COc1nccc2cc(C(N)=O)c(OC)cc12` [ZIMLOVISERTIB] was run?
A: The % of inhibition was 30.7%.

Q: Which % of control [3] does the source give for `CNC(=O)Nc1ccc(-c2nc(N3CC4CCC(C3)O4)c3cnn(C4CCC5(CC4)OCCO5)c3n2)cc1` here?
A: Its % of control is 70%.

Q: And the % of control [4]?
A: Its % of control is 79%.

Q: `CC(=O)c1cc(-c2ccccc2OCC2CC2)c2ncccn12` was tested. Which % of control [5] did it give?
A: The % of control was 112%.
